Assays:
Assay in all cases: relative viability (nuclei count vs DMSO), 5 days (fraction); higher = more cells survive
[1] = compound: CC[C@H](CO)Nc1nc(NCc2ccccc2)c2ncn(C(C)C)c2n1 [Seliciclib] + CC(=O)Nc1cccc(-n2c(=O)n(C3CC3)c(=O)c3c(Nc4ccc(I)cc4F)n(C)c(=O)c(C)c32)c1 [Trametinib] (partner 0.02 µM)
How it was run: (§1)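 Lung cancer cell lines were pin-tool dosed in 1536-well plates on the day after seeding, with either a lone drug or a fixed anchor-drug dose plus five library-drug doses (not always all listed) in √10 steps. Nuclei were counted on 4× images after 5 days. Relative viability is the ratio of treated-well to vehicle-well nuclei counts, with each value a median of duplicate plates.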

[2] = compound: CC[C@H](CO)Nc1nc(NCc2ccccc2)c2ncn(C(C)C)c2n1 [Seliciclib] + Nc1ncn([C@H]2C[C@H](O)[C@@H](CO)O2)c(=O)n1 [Decitabine] (partner 2 µM)
How it was run: as §1

[3] = compound: CC[C@H](CO)Nc1nc(NCc2ccccc2)c2ncn(C(C)C)c2n1 [Seliciclib] + CCNC(=O)c1noc(-c2cc(C(C)C)c(O)cc2O)c1-c1ccc(CN2CCOCC2)cc1 [Luminespib] (partner 0.01 µM)
How it was run: as §1

[4] = compound: CC[C@H](CO)Nc1nc(NCc2ccccc2)c2ncn(C(C)C)c2n1 [Seliciclib] + CC(=O)c1c(C)c2cnc(Nc3ccc(N4CCNCC4)cn3)nc2n(C2CCCC2)c1=O [Palbociclib] (partner 0.5 µM)
How it was run: as §1

[5] = compound: CC[C@H](CO)Nc1nc(NCc2ccccc2)c2ncn(C(C)C)c2n1 [Seliciclib] + Cc1nc(Nc2ncc(C(=O)Nc3c(C)cccc3Cl)s2)cc(N2CCN(CCO)CC2)n1 [Dasatinib] (partner 0.075 µM)
How it was run: as §1

[6] = compound: CC[C@H](CO)Nc1nc(NCc2ccccc2)c2ncn(C(C)C)c2n1 [Seliciclib] + Nc1nc2[nH]cc(CCc3ccc(C(=O)N[C@@H](CCC(=O)O)C(=O)O)cc3)c2c(=O)[nH]1 [Pemetrexed] (partner 0.2 µM)
How it was run: as §1

[7] = compound: CC[C@H](CO)Nc1nc(NCc2ccccc2)c2ncn(C(C)C)c2n1 [Seliciclib] + N=C(N)NC(=N)NCCc1ccccc1 [Phenformin] (partner 250 µM)
How it was run: as §1

[8] = compound: CC[C@H](CO)Nc1nc(NCc2ccccc2)c2ncn(C(C)C)c2n1 [Seliciclib] + NC(=O)Nc1cc(-c2cccc(F)c2)sc1C(=O)N[C@H]1CCCNC1 [AZD7762] (partner 0.2 µM)
How it was run: as §1

[9] = compound: CC[C@H](CO)Nc1nc(NCc2ccccc2)c2ncn(C(C)C)c2n1 [Seliciclib] + O=C(c1cc(Cc2n[nH]c(=O)c3ccccc23)ccc1F)N1CCN(C(=O)C2CC2)CC1 [Olaparib] (partner 8 µM)
How it was run: as §1

[10] = compound: CC[C@H](CO)Nc1nc(NCc2ccccc2)c2ncn(C(C)C)c2n1 [Seliciclib] + COc1cccc2cc(-c3nc([C@H]4CC[C@H](C(=O)O)CC4)n4ncnc(N)c34)[nH]c12 [OSI-027] (partner 0.5 µM)
How it was run: as §1

[11] = compound: CC[C@H](CO)Nc1nc(NCc2ccccc2)c2ncn(C(C)C)c2n1 [Seliciclib] + O=C(CCCCCCC(=O)Nc1ccccc1)NO [Vorinostat] (partner 1 µM)
How it was run: as §1

[12] = compound: CC[C@H](CO)Nc1nc(NCc2ccccc2)c2ncn(C(C)C)c2n1 [Seliciclib] + COc1cc2c(Oc3ccc(NC(=O)C4(C(=O)Nc5ccc(F)cc5)CC4)cc3F)ccnc2cc1OCCCN1CCOCC1 [Foretinib] (partner 0.25 µM)
How it was run: as §1

[13] = compound: CC[C@H](CO)Nc1nc(NCc2ccccc2)c2ncn(C(C)C)c2n1 [Seliciclib] + Cc1cc(Nc2cc(N3CCN(C)CC3)nc(Sc3ccc(NC(=O)C4CC4)cc3)n2)n[nH]1 [Tozasertib] (partner 0.1 µM)
How it was run: as §1

[14] = compound: CC[C@H](CO)Nc1nc(NCc2ccccc2)c2ncn(C(C)C)c2n1 [Seliciclib]
How it was run: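 A plate was accepted only when its control CV was below 25% and the cells had doubled at least once. Viability is defined from nuclear counts as treated wells divided by vehicle wells, with the median taken across plates. That median covers lung cancer cell lines grown in 1536-well plates, dosed by pinning at five √10-spaced library-drug concentrations, and counted in MetaXpress from 4× Hoechst images after 5 days.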

NCI-H2342
relative viability ([1]; first compound 0.08 µM): 0.705 | relative viability ([1]; first compound 0.253 µM): 0.598 | relative viability ([1]; first compound 0.8 µM): 0.865 | relative viability ([1]; first compound 2.53 µM): 0.752 | relative viability ([1]; first compound 8 µM): 0.887 | relative viability ([2]; first compound 0.08 µM): 0.668 | relative viability ([2]; first compound 0.253 µM): 0.637 | relative viability ([2]; first compound 0.8 µM): 0.736 | relative viability ([2]; first compound 2.53 µM): 0.649 | relative viability ([2]; first compound 8 µM): 0.747 | relative viability ([3]; first compound 0.08 µM): 0.658 | relative viability ([3]; first compound 0.253 µM): 0.525 | relative viability ([3]; first compound 0.8 µM): 0.662 | relative viability ([3]; first compound 2.53 µM): 0.699 | relative viability ([3]; first compound 8 µM): 0.648 | relative viability ([4]; first compound 0.08 µM): 0.63 | relative viability ([4]; first compound 0.253 µM): 0.477 | relative viability ([4]; first compound 0.8 µM): 0.539 | relative viability ([4]; first compound 2.53 µM): 0.524 | relative viability ([4]; first compound 8 µM): 0.492 | relative viability ([5]; first compound 0.08 µM): 0.328 | relative viability ([5]; first compound 0.253 µM): 0.336 | relative viability ([5]; first compound 0.8 µM): 0.313 | relative viability ([5]; first compound 2.53 µM): 0.301 | relative viability ([5]; first compound 8 µM): 0.319 | relative viability ([6]; first compound 0.08 µM): 0.748 | relative viability ([6]; first compound 0.253 µM): 0.779 | relative viability ([6]; first compound 0.8 µM): 0.752 | relative viability ([6]; first compound 2.53 µM): 0.693 | relative viability ([6]; first compound 8 µM): 0.711 | relative viability ([7]; first compound 0.08 µM): 0.606 | relative viability ([7]; first compound 0.253 µM): 0.54 | relative viability ([7]; first compound 0.8 µM): 0.533 | relative viability ([7]; first compound 2.53 µM): 0.496 | relative viability ([7]; first compound 8 µM): 0.521 | relative viability ([8]; first compound 0.08 µM): 0.565 | relative viability ([8]; first compound 0.253 µM): 0.509 | relative viability ([8]; first compound 0.8 µM): 0.486 | relative viability ([8]; first compound 2.53 µM): 0.404 | relative viability ([8]; first compound 8 µM): 0.427 | relative viability ([9]; first compound 0.08 µM): 0.417 | relative viability ([9]; first compound 0.253 µM): 0.394 | relative viability ([9]; first compound 0.8 µM): 0.347 | relative viability ([9]; first compound 2.53 µM): 0.429 | relative viability ([9]; first compound 8 µM): 0.453 | relative viability ([10]; first compound 0.08 µM): 0.565 | relative viability ([10]; first compound 0.253 µM): 0.657 | relative viability ([10]; first compound 0.8 µM): 0.581 | relative viability ([10]; first compound 2.53 µM): 0.505 | relative viability ([10]; first compound 8 µM): 0.574 | relative viability ([11]; first compound 0.08 µM): 0.792 | relative viability ([11]; first compound 0.253 µM): 0.753 | relative viability ([11]; first compound 0.8 µM): 0.706 | relative viability ([11]; first compound 2.53 µM): 0.663 | relative viability ([11]; first compound 8 µM): 0.705 | relative viability ([12]; first compound 0.08 µM): 0.91 | relative viability ([12]; first compound 0.253 µM): 0.882 | relative viability ([12]; first compound 0.8 µM): 1.06 | relative viability ([12]; first compound 2.53 µM): 1.14 | relative viability ([12]; first compound 8 µM): 0.935 | relative viability ([13]; first compound 0.08 µM): 0.665 | relative viability ([13]; first compound 0.253 µM): 0.404 | relative viability ([13]; first compound 0.8 µM): 0.395 | relative viability ([13]; first compound 2.53 µM): 0.538 | relative viability ([13]; first compound 8 µM): 0.538 | relative viability ([14]; 0.08 µM): 0.967 | relative viability ([14]; 0.253 µM): 0.74 | relative viability ([14]; 0.8 µM): 0.947 | relative viability ([14]; 2.53 µM): 0.842 | relative viability ([14]; 8 µM): 0.905

Source: the supplement of paper PMC10307832
